Assay results as given in patent publication US20120185955A1, “HEDGEHOG INHIBITOR ASSAY” (priority 2005, published 2012).

Columns and labels:
[1] = test system: Gli1; details: HEK293 cells transfected with Gli1 plasmid; 48 h treatment
Protocol: (§1) Luciferase activity was measured after 72 h of treatment time with the indicated compound. […] (B) Gli1 inhibition, (C) Gli2 inhibition in HEK293 cells. Treatment was for 48 h after transfection of the corresponding Gli plasmid and a Hh/Gli reporter (12×GliBS-Luc) and a renilla luciferase plasmid for normalisation.
(§2) Transfections were done using Fugene (Roche) according to instructions given by the manufacturer.
(§3) Hh reporter assays were performed essentially as described (59, 60). Signals were recorded using the Dual Luciferase Kit (Promega) for luciferase measurements and Galacto-Light Plus (Applied Biosystems) for β-Galactosidase measurements.

[2] = test system: GLI-induced transcription in Sufu−/− MEFs; assay: Substance testing: Hh/Gli reporter 8×GliLuc in Sufu−/− MEFs (inhibition of GLI-induced transcription); format: cell-based, mouse; details: 72 h of treatment
Protocol: Inhibition of GLI-induced transcription. (A) Sufu^−/− MEFs were transfected with Hh/Gli reporter plasmid 8×GliLuc and a renilla luciferase plasmid for normalisation. Luciferase activity was measured after 72 h of treatment time with the indicated compound.
For the substance testing, Sufu−/− MEF cells are transfected with 8×Gli and phRL-SV40 (or phRL-TK) plasmids using Fugene transfection reagent on larger plates. The day after transfection, cells are replated on suitable microwell plates. When cells reach confluency, substances, which are tested for inhibiting activity, (dissolved in DMSO) are added at a concentration of approximately 10 μM, or any other appropriate concentration. As control, the same volume of only DMSO without test compound is added (reaching a final concentration of e.g. 0.5-2% of DMSO in the cell culture medium) in order to assess solvent-based effects. Cells are lysed approximately 3-4 days later, and luciferase levels are measured using the Dual-Reporter Luciferase system (Promega) or any other suitable method.
Signals were recorded using the Dual Luciferase Kit (Promega) for luciferase measurements and Galacto-Light Plus (Applied Biosystems) for β-Galactosidase measurements.

[3] = test system: Gli2; details: HEK293 cells transfected with Gli2 plasmid; 48 h treatment
Protocol: as §1, §2, §3

[4] = test system: Gli reporter activity in Sufu−/− MEFs; assay: 8×GliLuc luciferase reporter assay in Sufu−/− MEFs; format: cell-based, mouse
Protocol: For the luciferase reporter assays, 20,000 MEF cells were seeded into each well of a 24-well plate in MEF medium. The following day, cells were transfected using FuGENE 6 (Roche) with 300 ng of the luciferase reporter plasmids 8×GliLuc and 8×Gli^mutLuc (58) with or without 300 ng of the pMYC-SUFU expression plasmid (9), 300 ng of a constitutively active PKA catalytic subunit expression plasmid (59) or with 300 ng of the TOPflash and FOPflash reporter plasmids (Upstate Biotechnology), together with 50 ng the Renilla luciferase phRL-TK reporter (Promega) to monitor the transfection efficiency. […] The assays were conducted in triplicate and repeated at least three times. The values were normalized to the Renilla reporter before calculating relative levels.

[5] = test system: EGFP::Gli1 nuclear export in MEFs; assay: GLI1 subcellular localization in MEFs (EGFP::GLI1, confocal); format: cell-based, mouse; details: Wt, Sufu−/− and Ptch1−/− MEFs; 10 ng/ml Leptomycin B, 3-6 hours
Protocol: Wt, Sufu^−/− and Ptch1^−/− MEFs (1×10^6 cells) were each transfected with 5 μg of the expression constructs containing GLI1 cDNA fused in frame 3′ of EGFP [EGFP::GLI1, (9)] or with the parental EGFP plasmid alone (BD Biosciences Clontech) in MEF 1 solution using Nucleofector technology, program T-20 (Amaxa Biosystems), and seeded onto slide chambers followed by culturing overnight. Twenty-four hours after transfection, cells were either treated with 10 ng/ml Leptomycin B (Sigma) for 3-6 hours or left untreated, washed in PBS, fixed in 4% PFA, washed in PBS again and incubated with DRAQ5 (Alexis Biochemicals) for visualization of cell nuclei, followed by mounting using ProLong Gold antifade reagent (Invitrogen). Fluorescence was visualized using a Zeiss LSM510 confocal microscope with lasers set at 488 nm for EGFP and at 633 nm for DRAQ5.

[6] = test system: β-Galactosidase reporter enzyme (pSV40-lacZ); assay: Gli-independent β-Galactosidase construct (pSV40-lacZ) control; format: cell-based

CC1=C2C[C@H]3[C@@H](CC=C4C[C@@H](O)CC[C@@]43C)[C@@H]2CC[C@]12O[C@@H]1C[C@H](C)CN[C@H]1[C@H]2C [Cyclopamine]
Gli1 inhibition (12×GliBS-Luc reporter) [1]: inactive | Luciferase signal intensity (8×GliLuc, renilla-normalised) [2]: ineffective | Gli2 inhibition (12×GliBS-Luc reporter) [3]: inactive

O=S(=O)(NCCNC/C=C/c1ccc(Br)cc1)c1cccc2cnccc12 [H-89]
Effect on the Gli response (8×GliLuc) ([4]; MEFs, 1 μM H-89, one day): no significant effect

CCC(=C/[C@H](C)C/C=C/C(C)=C/[C@@H](C)C(=O)[C@@H](C)[C@H](O)[C@@H](C)C/C(C)=C/C(=O)O)/C=C/[C@@H]1OC(=O)C=C[C@@H]1C [LMB, Leptomycin B]
Subcellular localization of EGFP::Gli1 fusion protein [5]: strong nuclear retention

CNC1CCC(N(Cc2cccc(-c3ccncc3)c2)C(=O)c2sc3ccccc3c2Cl)CC1 (stereo not drawn) [SAG]
Effect on Gli reporter activity (8×GliLuc) ([4]; Sufu−/− MEFs, 10 μM cyclopamine or 100 nM SAG for two days): No further increase in Gli reporter activity

CN(C)CCCNc1ccc2c(c1)C(=O)c1ccccc1C2=O [GANT55, 2-(3-Dimethylamino-propylamino)-anthraquinone]
Luciferase signal intensity (8×GliLuc, renilla-normalised) [2]: reduces signal intensity in a dose-dependent manner | Unspecific inhibition of the β-Galactosidase reporter enzyme [6]: not due to unspecific inhibition of the reporter enzyme

C=C[C@@]1(C)CC(=O)[C@]2(O)[C@@]3(C)[C@@H](O)CCC(C)(C)[C@@H]3[C@H](O)[C@H](OC(C)=O)[C@@]2(C)O1 [forskolin]
inhibition at 100 µM ([4]; Mus musculus, 24 h, Sufu−/− MEFs, 100 μM forskolin, one day, read-out: Inhibition of the Gli-mediated response): ~50%
